From patent US12285434B2, “Therapeutic, preventive, or improvement agent for inflammatory disease and allergic disease” (The University of Tokyo, priority 2018, dated 2025)

What was measured:
ear vessels of the mice = assay: In vivo microscopy of ear vessels: FITC-dextran leakage and vascular diameter after histamine; design: species or system mouse; conditions: histamine 400 μg by instillation, no pretreatment
Experimental: To visualize the ear vessels of the mice, 70 kDa fluorescein isothiocyanate-dextran (10 mg/kg, manufactured by Sigma-Aldrich) was injected intravenously. Then, immediately after the administration of fluorescein isothiocyanate-dextran, 5,6-DiHETE (0.1 μg) was administered by instillation (percutaneously administered) as a pretreatment, and this group of mice was designated as a “5,6-DiHETE-administered group.” As a control group, a group of mice not administered with 5,6-DiHETE was designated as a “[…]-administered group”. Then, 15 minutes after the administration by instillation, histamine (400 μg) was administered by instillation (percutaneously administered) into the ventral surface of the ears for both the groups. Next, the mice were placed on the stage of a microscope confocal microscope (ECLIPSE Ti with C1 confocal system, manufactured by Nikon Corporation), and their body temperatures were maintained at 37° C. Dextran leakage and vascular diameter in the ears were monitored every minute in a period from 0 to 30 minutes after the administration of histamine using EZ-C1 Free Viewer (manufactured by Nikon Corporation), and the dextran leakage, artery diameter and vein diameter were quantified according to the description of Omori, K. et al., British Journal of Pharmacology, 171:4879-4889 (2014). It is known that smooth muscle contraction reduces the downstream blood flow and limits the vascular leakage, whereas smooth muscle relaxation (increase of vascular diameter) increases the blood flow, thereby leading to vascular leakage.

HUVECs = assay: Endothelial barrier function: transendothelial electrical resistance (TER); type: cell-based, human; conditions: histamine 10 μM, no pretreatment
Experimental: (§1) In Examples 4 to 6, human umbilical vein endothelial cells (hereinafter, sometimes referred to as “HUVECs”, manufactured by Lonza) were cultured in EGM-2 (manufactured by Lonza K.K.). These cells (passages 4 to 9) were used for experiments after 4-hour starvation in EBM-2 (manufactured by Lonza K.K.) containing 2% FBS.
The in vitro endothelial barrier function was evaluated by measuring the transendothelial electrical resistance (hereinafter, sometimes referred to as “TER”) of the HUVECs prepared in the above item (1) over time. Specifically, the transendothelial electrical resistance was measured using an xCELLigence Real-Time Cell Analyzer DP system (manufactured by Roche). The system monitors changes in TER across an interdigitated microelectrode at the bottom of tissue culture E-plates (manufactured by Roche). The HUVECs (8,000 cells) were plated on the E-plates and incubated until confluent. Then, the following operation (a) or (b) was performed.
(a) Each reagent was added to plates on which the HUVECs were cultured, so as to give a vehicle, 1 U/mL thrombin, 1 μM forskolin, or 0.1 μM or 0.3 μM 5,6-DiHETE (FIGS. 4A and 4B).
(b) A vehicle or […] was added to plates on which the HUVECs were cultured, so as to attain 10 μM. […] Thirty (30) minutes after the addition, 10 μM histamine was added to each plate 30 minutes after the addition (FIGS. 4C and 4D).
In the above operations (a) and (b), the TER was measured every 60 seconds. For normalization, the cell index value at each time point is shown as a ratio relative to the initial value. The maximum normalized cell index after stimulation was quantified and represented as maximal response. Note that it is known that the disruption of the endothelial barrier function lowers the TER, but that the enhancement of the endothelial barrier function increases the TER.

[1] = tested on: calcium ion concentration in HUVECs; assay: Histamine-induced increase of calcium ion concentration (fura-2); type: cell-based, human; conditions: histamine 10 μM, no pretreatment
Experimental: These cells (passages 4 to 9) were used for experiments after 4-hour starvation in EBM-2 (manufactured by Lonza K.K.) containing 2% FBS.
HUVECs were incubated with a calcium fluorescence indicator (3 μg fura-2/AM containing 0.11% Cremophor EL) for 30 minutes and washed with an HEPES buffer three times. […] Then, 5 minutes after the addition of each reagent, histamine was added so as to attain 10 μM. In addition, a group to which histamine was added so as to attain 10 μM without pretreatment was also prepared. A cover slip was placed in a specialized airtight chamber mounted onto the stage of a microscope maintained at 37° C. The HUVECs were excited at 340 nm and 380 nm and the emitted fluorescence signal was measured every 3 seconds at 510 nm for 60 seconds. The fluorescence ratio (R:F340/F380) was determined using a fluorescence imaging system (AQUACOSMOS, manufactured by Hamamatsu Photonics K.K.). After the experiment, 1 μM ionomycin was added and the fluorescence changes were measured in the presence of 0 or 1.5 mM calcium ions. The calcium ion concentration was indicated as A fluorescence ratio. AUC was calculated 1 minute after each stimulus to evaluate the A fluorescence ratio. It is known that the increase of calcium ion concentration in endothelial cells promotes NO production by eNOS phosphorylation and […] smooth muscle cells (Garcia-Cardena, G. et al., Nature, 392: 821-824(1998); and Luo, Z. et al., The Journal of clinical investigation, 106: 493-499(2000)).

NO production in HUVECs = assay: Histamine-induced NO production (nitrite and nitrate); type: cell-based, human; conditions: histamine 10 μM, no pretreatment
Experimental: as §1
The HUVECs were washed three times with HEPES and incubated in HEPES supplemented with 1 mM L-arginine and 10 μM tetrahydrobiopterin. After equilibration for 30 minutes, the medium was exchanged, and the cells were incubated for additional 30 minutes. […] The conditioned media before and after the stimulation (100 μL each) were collected and centrifuged in each amount of 300 g for 3 minutes. The supernatants were collected, and used to measure nitrite and nitrate, as stable metabolites of NO, by an ENO-20 NOx analyzer (manufactured by Eicom Corporation). The degrees of increases of nitrite and nitrate levels after the stimulation were normalized with cellular protein contents.

[2] = tested on: histamine-induced vascular permeability in mouse ears; assay: Modified Miles assay: histamine-induced vascular hyperpermeability (Evans blue extravasation); type: in vivo, mouse (C57BL/6); conditions: 400 μg histamine, no pretreatment
Experimental: Fifteen (15) minutes after the intracutaneous injection, a vehicle (80% acetone) or histamine (400 μg, manufactured by Molecular Probes) was percutaneously administered to the ventral surface of the ears. To evaluate vascular permeability, Evans blue (50 mg/kg, manufactured by Sigma) was injected intravenously 5 minutes after the administration of histamine. The mice were then euthanized by cervical dislocation 30 minutes after the injection of Evans blue. The ears were dissected, dried at 55° C., and weighed. Extravasated Evans blue present in the ears was extracted in formamide (manufactured by Molecular Probes), and quantified spectrophotometrically (manufactured by PerkinElmer Japan Co., Ltd.) at a wavelength of 610 nm.

anaphylaxis model mice = assay: Histamine-induced anaphylaxis: blood pressure and body temperature; type: in vivo, mouse (C57BL/6); conditions: 30 minutes after histamine 50 mg/kg intravenously, no pretreatment
Experimental: Histamine (50 mg/kg) lysed in a physiological saline solution was intravenously administered to C57BL/6 strain mice (male, 8 to 12 weeks old) to prepare anaphylaxis model mice (hereinafter, sometimes referred to as “anaphylaxis group”). […] L-NAME is an NO synthesis inhibitor. As indices of anaphylactic symptoms, a body temperature decrease and a blood pressure decrease were observed.

NCCc1c[nH]cn1 [histamine, reference compound]
artery diameter as compared with arteries nonstimulated with histamine (ear vessels of the mice): 178±13%
TER, minimum (normalized cell index) (HUVECs): 0.82±0.05 fold
calcium ion concentration, AUC at 1 minute after stimulation [1]: 12.2±2.1
NO production (NO production in HUVECs): 0.31±0.06 pmol/μg protein
blue dye extravasation (Evans blue) in ear [2]: 0.14 ± 0.02 µg/mg
body temperature decrease (anaphylaxis model mice): −2.2±0.3 °C
